Read-outs that look alike come from different tables or passages of the source.
Molecular target: T1, full-length human cGAS (Homo sapiens, UniProt Q8N884)
T1 construct: The cGAS assay was used to screen 100,000 compounds with full-length human cGAS; 6xHis; made in house
Assay: cGAS enzymatic assay (FP readout), inhibition of cGAS
Assay type: biochemical
Experimental: Some exemplary compounds of the disclosure were tested for inhibition of cGAS (30 nM). The results are provided in Table 1 where “A” indicates an IC50 of less than 100 nM, “B” indicates an IC50 of greater than 100 nM and less than 500 nM, “C” indicates an IC50 of greater than 500 nM and less than 1 μM, “D” indicates an IC50 of greater than 1 μM and less than 10 μM, and “E” indicates an IC50 of greater than 10 μM.
A homogenous cGAS enzymatic assay was developed with fluorescence polarization (FP) and time-resolved Forster resonance energy transfer (TR-FRET) readouts (FIG. 2A-D). The cGAS assay was used to screen 100,000 compounds with full-length human cGAS (FIG. 2E), resulting in the identification of novel chemotypes, two of which are further developed in a structure-driven hit-to-lead study (Table 3, below). The assay performance was robust, as indicated by respective Z and Z′ values of 0.59 and 0.63 in the screen; compounds with polarization values greater than three SDs from the mean were considered hits; a scatterplot from 10 plates (3,200 compounds) is shown in FIG. 2D.
Potency and MOA studies, including Mn^2+ sensitivity, are performed using the cGAS enzymatic assay. Dose response experiments are used to determine IC50 values under basal conditions (5 mM MgCl2, 100 μM ATP/GTP), and with the addition of physiological levels of Mn (0.2 mM) using human and mouse cGAS. Ligand optimization is driven by potency with the human enzyme; potency with mouse cGAS informs selection of an appropriate disease model for efficacy studies. Competition with ATP and GTP is assessed by comparing basal IC50 values to those in the presence of saturating ATP or GTP, and subsequently confirmed by measuring velocity vs. substrate at varying ATP or GTP levels. Inhibitor residence times (1/koff) are used as a key parameter for prioritizing compounds and driving SAR, because a longer residence time often results from an allosteric mechanism, and can also correlate with improved cellular activity. The cGAS enzymatic assay is used with the jump dilution method to measure residence times (inhibitor dissociation rates), as described for kinases using the very similar ADP assay. Biophysical methods, including SPR and TSAn, are used as orthologous methods for residence time measurements and kd estimates.

[1] = cGAS (30 nM), no Mn2+, read-out: Inhibition cGAS (IC50 class)
[2] = cGAS (30 nM), with Mn2+, read-out: Inhibition cGAS + Mn^2+ (IC50 class)

T1 sequence (Q8N884 whole entry): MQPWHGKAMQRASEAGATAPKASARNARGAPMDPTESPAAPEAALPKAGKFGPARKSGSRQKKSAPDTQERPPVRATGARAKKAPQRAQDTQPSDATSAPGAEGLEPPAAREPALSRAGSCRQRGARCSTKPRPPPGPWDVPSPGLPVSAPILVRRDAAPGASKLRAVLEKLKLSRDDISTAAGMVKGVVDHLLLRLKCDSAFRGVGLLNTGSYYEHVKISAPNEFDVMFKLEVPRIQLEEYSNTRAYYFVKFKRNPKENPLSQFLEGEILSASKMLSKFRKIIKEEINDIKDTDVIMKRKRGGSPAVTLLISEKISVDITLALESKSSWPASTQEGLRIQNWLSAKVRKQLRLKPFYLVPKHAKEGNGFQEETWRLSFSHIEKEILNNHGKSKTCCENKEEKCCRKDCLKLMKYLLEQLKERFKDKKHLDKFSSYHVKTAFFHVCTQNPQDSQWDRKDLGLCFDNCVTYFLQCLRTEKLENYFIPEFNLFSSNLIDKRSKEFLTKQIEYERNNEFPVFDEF

Compound	IC50 (5 mM Mg2+, 0.2 mM Mn2+, read-out: IC50 (5 mM Mg^2+, 0.2 mM Mn^2+))	IC50 (5 mM Mg2+, no Mn2+, read-out: IC50 (5 mM Mg^2+))	IC50 [1]	IC50 [2]	Effect of Mn^2+ on potency against cGAS (Mn2+ at physiological concentration (200 μM))
Clc1ccc2c(-n3ccnc3)ccnc2c1 [Compound 1, 7-chloro-4-(1H-imidazol-1-yl)quinolone]	790 nM	5400 nM	1000 to 10000 nM	100 to 500 nM	–
O=C(O)CNc1nc(-c2ccccc2)nc2ccccc12 [Compound 2, (2-phenylquinazolin-4-yl)glycine]	–	–	> 10000 nM	> 10000 nM	–
COc1ccc2nccc(-n3ccnc3)c2c1 [Compound 3, 4-(1H-imidazol-1-yl)-6-methoxyquinoline]	–	–	> 10000 nM	1000 to 10000 nM	–
Brc1ccc2c(-n3ccnc3)ccnc2c1 [Compound 4, 7-bromo-4-(1H-imidazol-1-yl)quinoline]	–	–	1000 to 10000 nM	100 to 500 nM	–
Clc1ccc2c(-n3ccnc3)ncnc2c1 [Compound 5, 7-chloro-4-(1H-imidazol-1-yl)quinazoline]	–	–	> 10000 nM	> 10000 nM	–
COc1ccc2c(-n3ccnc3)ccnc2c1 [Compound 6, 4-(1H-imidazol-1-yl)-7-methoxyquinoline]	–	–	> 10000 nM	1000 to 10000 nM	–
Brc1ccc2nccc(-n3ccnc3)c2c1 [Compound 7, 6-bromo-4-(1H-imidazol-1-yl)quinoline]	–	–	> 10000 nM	1000 to 10000 nM	–
Fc1ccc2c(-n3ccnc3)ccnc2c1 [Compound 8, 7-fluoro-4-(1H-imidazol-1-yl)quinoline]	–	–	> 10000 nM	> 10000 nM	–
Nc1ccc2c(-n3ccnc3)ccnc2c1 [Compound 9, 4-(1H-imidazol-1-yl)quinolin-7-amine]	–	–	–	> 10000 nM	–
c1ccc(-c2ccc3nccc(-n4ccnc4)c3c2)cc1 [Compound 10, 4-(1H-imidazol-1-yl)-6-phenylquinoline]	–	–	–	1000 to 10000 nM	–
Nc1ccc2nccc(-n3ccnc3)c2c1 [Compound 11, 4-(1H-imidazol-1-yl)quinolin-6-amine]	–	–	> 10000 nM	1000 to 10000 nM	–
Clc1ccc2c(-n3ccnc3)cc(-c3ccccc3)nc2c1 [Compound 12, 7-chloro-4-(1H-imidazol-1-yl)-2-phenylquinoline]	–	–	1000 to 10000 nM	100 to 500 nM	–
Clc1ccc2c(-n3ccnc3)c(-c3ccccc3)cnc2c1 [Compound 13, 7-chloro-4-(1H-imidazol-1-yl)-3-phenylquinoline]	–	–	500 to 1000 nM	100 to 500 nM	–
COc1cc2c(-n3ccnc3)c(C(=O)O)cnc2cc1Cl [Compound 15, 7-chloro-4-(1H-imidazol-1-yl)-6-methoxyquinoline-3-carboxylic acid]	–	–	100 to 500 nM	< 100 nM	–
Cc1cc2c(-n3ccnc3)ccnc2cc1Cl [Compound 16, 7-chloro-4-(1H-imidazol-1-yl)-6-methylquinoline]	–	–	1000 to 10000 nM	500 to 1000 nM	–
COc1cc2c(N3CCC[C@H]3C(=O)O)nc(-c3ccccc3)nc2cc1Cl [Compound 17, (7-chloro-6-methoxy-2-phenylquinazolin-4-yl)-L-proline]	–	–	1000 to 10000 nM	> 10000 nM	–
Cc1cc(-n2ccnc2)c2ccc(Cl)cc2n1 [Compound 18, 7-chloro-4-(1H-imidazol-1-yl)-2-methylquinoline]	–	–	500 to 1000 nM	100 to 500 nM	–
Nc1cc(-n2ccnc2)c2ccc(Cl)cc2n1 [Compound 19, 7-chloro-4-(1H-imidazol-1-yl)quinolin-2-amine]	–	–	500 to 1000 nM	–	–
COc1cc2c(-n3ccnc3)ccnc2cc1Br [Compound 22, 7-bromo-4-(1H-imidazol-1-yl)-6-methoxyquinoline]	–	–	100 to 500 nM	< 100 nM	–
CCOc1cc2c(-n3ccnc3)ccnc2cc1Cl [Compound 23, 7-chloro-6-ethoxy-4-(1H-imidazol-1-yl)quinolone]	–	–	500 to 1000 nM	100 to 500 nM	–
Cc1ccc(S(=O)(=O)Nc2ccc(C(=O)Nc3ccncc3)cc2)cc1 [Compound 24, 4-((4-methylphenyl)sulfonamido)-N-(pyridin-4-yl)benzamide]	–	–	> 10000 nM	–	–
O=C(Cc1ccccc1)Nc1ccc(C(=O)Nc2ccccc2C(=O)O)cc1 [Compound 25, 2-(4-(2-phenylacetamido)benzamido)benzoic acid]	–	–	> 10000 nM	> 10000 nM	–
O=C(Cc1ccccc1)Nc1ccc(C(=O)Nc2ccc(C(=O)O)cc2)cc1 [Compound 26, 4-(4-(2-phenylacetamido)benzamido)benzoic acid]	–	–	> 10000 nM	> 10000 nM	–
O=C(Nc1ccc(C(=O)Nc2ccccc2C(=O)O)cc1)c1ccc(I)cc1 [Compound 27, 2-(4-(4-iodobenzamido)benzamido)benzoic acid]	–	–	> 10000 nM	> 10000 nM	–
O=C(Nc1ccccc1C(=O)O)c1ccc(NC(=O)c2ccccc2Br)cc1 [Compound 28, 2-(4-(2-bromobenzamido)benzamido)benzoic acid]	–	–	> 10000 nM	> 10000 nM	–
COc1ccc(CC(=O)Nc2cccc(C(=O)Nc3ccccc3C(=O)O)c2)cc1 [Compound 29, 2-(3-(2-(4-methoxyphenyl)acetamido)benzamido)benzoic acid]	–	–	> 10000 nM	> 10000 nM	–
COc1ccccc1CC(=O)Nc1cccc(C(=O)Nc2ccccc2C(=O)O)c1 [Compound 30, 2-(3-(2-(2-methoxyphenyl)acetamido)benzamido)benzoic acid]	–	–	> 10000 nM	–	–
O=C(NCc1ccccc1)c1nc2[nH]c3c(c(=O)n2n1)CCC3 [Compound 31, N-benzyl-8-oxo-5,6,7,8-tetrahydro-4H-cyclopenta[d][1,2,4]triazolo[1,5-a]pyrimidine-2-carboxamide]	–	–	> 10000 nM	–	–
O=C(O)[C@@H](Cc1ccccc1)Nc1ncnc2c1CCCC2 [Compound 32, (5,6,7,8-tetrahydroquinazolin-4-yl)-D-phenylalanine]	–	–	> 10000 nM	> 10000 nM	–
CCN(CC)CCCC(C)Nc1c2ccc(Cl)cc2nc2ccc(OC)cc12 (stereo not shown) [quinacrine, reference compound]	–	–	–	–	significantly less potent

Reference: US20220073470A1, “INHIBITORS OF CGAS ACTIVITY AS THERAPEUTIC AGENTS” (BELLBROOK LABS, LLC, priority 2019, published 2022)
